ChEMBL document CHEMBL1141535, “Benzothiazole based inhibitors of p38alpha MAP kinase” (Bioorg Med Chem Lett, 2008)

Experiments:
[1] = tested on: PBMC; assay: Inhibition of LPS-induced TNFalpha production in human PBMC; assay type: functional, cell-based
[2] = molecular target: Mitogen-activated protein kinase 14 (Homo sapiens, UniProt Q16539); assay: Inhibition of p38alpha
[3] = molecular target: Protein kinase C beta type (Homo sapiens) (UniProt P05771); assay: Inhibition of PKC-beta-2 at 10 uM
[4] = molecular target: Platelet-derived growth factor receptor beta (Homo sapiens) (UniProt P09619); assay: Inhibition of PDGFRbeta at 10 uM
[5] = molecular target: Ephrin type-B receptor 4 (Homo sapiens) (UniProt P54760); assay: Inhibition of EphB4 at 10 uM
[6] = molecular target: Tyrosine-protein kinase Fyn (Homo sapiens) (UniProt P06241); assay: Inhibition of Fyn at 10 uM
[7] = molecular target: Tyrosine-protein kinase ABL1 (Homo sapiens) (UniProt P00519); assay: Inhibition of Abl at 10 uM
[8] = molecular target: Hepatocyte growth factor receptor (Homo sapiens) (UniProt P08581); assay: Inhibition of cMET at 10 uM
[9] = molecular target: Phosphorylase b kinase gamma catalytic chain, liver/testis isoform (Homo sapiens) (UniProt P15735); assay: Inhibition of PHKG2 at 10 uM
[10] = molecular target: Ribosomal protein S6 kinase alpha-3 (Homo sapiens) (UniProt P51812); assay: Inhibition of RSK2 at 10 uM
[11] = molecular target: Tyrosine-protein kinase Lck (Homo sapiens) (UniProt P06239); assay: Inhibition of Lck at 10 uM
[12] = molecular target: RAC-beta serine/threonine-protein kinase (Homo sapiens) (UniProt P31751); assay: Inhibition of Atk2 at 10 uM
[13] = molecular target: Epidermal growth factor receptor (Homo sapiens) (UniProt P00533); assay: Inhibition of EGFR at 10 uM
[14] = molecular target: Glycogen synthase kinase-3 beta (Homo sapiens) (UniProt P49841); assay: Inhibition of GSK3-beta at 10 uM
[15] = molecular target: Tyrosine-protein kinase Lyn (Homo sapiens) (UniProt P07948); assay: Inhibition of Lyn A at 10 uM
[16] = molecular target: Receptor-type tyrosine-protein kinase FLT3 (Homo sapiens) (UniProt P36888); assay: Inhibition of Flt3 at 10 uM
[17] = molecular target: Casein kinase II subunit alpha (Homo sapiens) (UniProt P68400); assay: Inhibition of CK2-alpha-1 at 10 uM
[18] = molecular target: Tyrosine-protein kinase HCK (Homo sapiens) (UniProt P08631); assay: Inhibition of Hck at 10 uM
[19] = molecular target: Fibroblast growth factor receptor 2 (Homo sapiens) (UniProt P21802); assay: Inhibition of FGFR2 at 10 uM
[20] = Half life in Sprague-Dawley rat at 2 mg/kg, iv; assay type: ADME, organism-based; parameters: dose 2 mg/kg, route intravenous; settings: in vivo
[21] = molecular target: Tyrosine-protein kinase CSK (Homo sapiens) (UniProt P41240); assay: Inhibition of Csk at 10 uM
[22] = molecular target: Megakaryocyte-associated tyrosine-protein kinase (Homo sapiens) (UniProt P42679); assay: Inhibition of Hyl at 10 uM
[23] = molecular target: Serine/threonine-protein kinase Chk2 (Homo sapiens) (UniProt O96017); assay: Inhibition of CHK2 at 10 uM
[24] = molecular target: Ephrin type-A receptor 3 (Homo sapiens) (UniProt P29320); assay: Inhibition of EphA3 at 10 uM
[25] = molecular target: Protein kinase C delta type (Homo sapiens) (UniProt Q05655); assay: Inhibition of PKCdelta at 10 uM
[26] = molecular target: MAP kinase-activated protein kinase 3 (Homo sapiens) (UniProt Q16644); assay: Inhibition of MAPKAP-K3 at 10 uM
[27] = molecular target: Glycogen synthase kinase-3 alpha (Homo sapiens) (UniProt P49840); assay: Inhibition of GSK3-alpha at 10 uM
[28] = molecular target: Serine/threonine-protein kinase Nek2 (Homo sapiens) (UniProt P51955); assay: Inhibition of NEK2 at 10 uM
[29] = molecular target: Proto-oncogene tyrosine-protein kinase Src (Homo sapiens) (UniProt P12931); assay: Inhibition of Src at 10 uM
[30] = molecular target: Tyrosine-protein kinase Lyn (Homo sapiens) (UniProt P07948); assay: Inhibition of Lyn B at 10 uM
[31] = molecular target: Fibroblast growth factor receptor 1 (Homo sapiens) (UniProt P11362); assay: Inhibition of FGFR1 at 10 uM
[32] = molecular target: Calcium/calmodulin-dependent protein kinase type II subunit alpha (Homo sapiens) (UniProt Q9UQM7); assay: Inhibition of CaMK2-alpha at 10 uM
[33] = molecular target: Tyrosine-protein kinase Yes (Homo sapiens) (UniProt P07947); assay: Inhibition of Yes at 10 uM
[34] = molecular target: RAC-gamma serine/threonine-protein kinase (Homo sapiens) (UniProt Q9Y243); assay: Inhibition of Atk3 at 10 uM
[35] = molecular target: MAP kinase-activated protein kinase 2 (Homo sapiens) (UniProt P49137); assay: Inhibition of MAPKAP-K2 at 10 uM
[36] = molecular target: RAC-alpha serine/threonine-protein kinase (Homo sapiens) (UniProt P31749); assay: Inhibition of Atk1 at 10 uM
[37] = molecular target: Cytoplasmic tyrosine-protein kinase BMX (Homo sapiens) (UniProt P51813); assay: Inhibition of Bmx at 10 uM
[38] = AUC in Sprague-Dawley rat at 5 mg/kg, po; assay type: ADME, organism-based; parameters: dose 5 mg/kg, route oral; settings: plasma
[39] = Bioavailability in Sprague-Dawley rat at 5 mg/kg, po; assay type: ADME, organism-based; settings: in vivo
[40] = Clearance in Sprague-Dawley rat at 2 mg/kg, iv; assay type: ADME, organism-based; parameters: dose 2 mg/kg, route intravenous; settings: in vivo
[41] = molecular target: Protein kinase C beta type (Homo sapiens) (UniProt P05771); assay: Inhibition of PKCbeta1 at 10 uM
[42] = molecular target: Mitogen-activated protein kinase 1 (Homo sapiens) (UniProt P28482); assay: Inhibition of ERK2 at 10 uM
[43] = molecular target: Tyrosine-protein kinase BTK (Homo sapiens) (UniProt Q06187); assay: Inhibition of Btk at 10 uM
[44] = molecular target: MAP kinase-activated protein kinase 5 (Homo sapiens) (UniProt Q8IW41); assay: Inhibition of MAPKAP-K5 at 10 uM
[45] = molecular target: Mitogen-activated protein kinase 3 (Homo sapiens) (UniProt P27361); assay: Inhibition of ERK1 at 10 uM
[46] = molecular target: Protein kinase C alpha type (Homo sapiens) (UniProt P17252); assay: Inhibition of PKCalpha at 10 uM
[47] = molecular target: Tyrosine-protein kinase Fgr (Homo sapiens) (UniProt P09769); assay: Inhibition of Fgr at 10 uM
[48] = molecular target: Tyrosine-protein kinase Blk (Homo sapiens) (UniProt P51451); assay: Inhibition of Blk at 10 uM
[49] = molecular target: Insulin-like growth factor 1 receptor (Homo sapiens) (UniProt P08069); assay: Inhibition of IGF1R at 10 uM
[50] = molecular target: Tyrosine-protein kinase Fes/Fps (Homo sapiens) (UniProt P07332); assay: Inhibition of FES at 10 uM
[51] = Inhibition of PKA at 10 uM
[52] = molecular target: Protein-tyrosine kinase 6 (Homo sapiens) (UniProt Q13882); assay: Inhibition of Brk at 10 uM
[53] = molecular target: Serine/threonine-protein kinase Chk1 (Homo sapiens) (UniProt O14757); assay: Inhibition of CHK1 at 10 uM
[54] = molecular target: Fibroblast growth factor receptor 3 (Homo sapiens) (UniProt P22607); assay: Inhibition of FGFR3 at 10 uM
[55] = molecular target: Protein kinase C gamma type (Homo sapiens) (UniProt P05129); assay: Inhibition of PKCgamma at 10 uM
[56] = molecular target: Fibroblast growth factor receptor 4 (Homo sapiens) (UniProt P22455); assay: Inhibition of FGFR4 at 10 uM
[57] = molecular target: Interleukin-1 receptor-associated kinase 4 (Homo sapiens) (UniProt Q9NWZ3); assay: Inhibition of IRAK4 at 10 uM

Mitogen-activated protein kinase 14, sequence (Q16539 whole entry): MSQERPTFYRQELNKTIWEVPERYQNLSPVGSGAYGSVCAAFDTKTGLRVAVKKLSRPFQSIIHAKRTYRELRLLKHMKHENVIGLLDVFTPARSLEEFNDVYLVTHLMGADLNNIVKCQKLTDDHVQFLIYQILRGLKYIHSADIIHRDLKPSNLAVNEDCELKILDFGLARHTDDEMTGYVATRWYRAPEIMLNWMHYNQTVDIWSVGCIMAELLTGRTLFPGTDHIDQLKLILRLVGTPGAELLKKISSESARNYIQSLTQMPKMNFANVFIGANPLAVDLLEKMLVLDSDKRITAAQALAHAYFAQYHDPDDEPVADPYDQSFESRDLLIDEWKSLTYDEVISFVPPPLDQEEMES
Tyrosine-protein kinase Lyn (Homo sapiens), sequence (P07948 2-512 limits assumed): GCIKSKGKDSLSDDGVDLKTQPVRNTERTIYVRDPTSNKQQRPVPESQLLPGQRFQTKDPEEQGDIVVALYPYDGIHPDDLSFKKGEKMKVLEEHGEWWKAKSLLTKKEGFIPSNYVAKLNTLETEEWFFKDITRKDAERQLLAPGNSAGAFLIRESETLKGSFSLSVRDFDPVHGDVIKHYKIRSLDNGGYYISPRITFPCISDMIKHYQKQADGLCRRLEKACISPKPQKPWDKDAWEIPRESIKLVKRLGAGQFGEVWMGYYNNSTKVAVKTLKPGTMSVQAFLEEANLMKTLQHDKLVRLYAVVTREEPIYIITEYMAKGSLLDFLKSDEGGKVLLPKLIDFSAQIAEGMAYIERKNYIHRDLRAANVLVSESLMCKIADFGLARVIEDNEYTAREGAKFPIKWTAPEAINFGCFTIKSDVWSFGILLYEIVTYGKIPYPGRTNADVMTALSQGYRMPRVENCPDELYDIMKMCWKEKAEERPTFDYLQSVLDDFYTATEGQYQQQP
Protein kinase C beta type (Homo sapiens), sequence (P05771 2-671 limits assumed): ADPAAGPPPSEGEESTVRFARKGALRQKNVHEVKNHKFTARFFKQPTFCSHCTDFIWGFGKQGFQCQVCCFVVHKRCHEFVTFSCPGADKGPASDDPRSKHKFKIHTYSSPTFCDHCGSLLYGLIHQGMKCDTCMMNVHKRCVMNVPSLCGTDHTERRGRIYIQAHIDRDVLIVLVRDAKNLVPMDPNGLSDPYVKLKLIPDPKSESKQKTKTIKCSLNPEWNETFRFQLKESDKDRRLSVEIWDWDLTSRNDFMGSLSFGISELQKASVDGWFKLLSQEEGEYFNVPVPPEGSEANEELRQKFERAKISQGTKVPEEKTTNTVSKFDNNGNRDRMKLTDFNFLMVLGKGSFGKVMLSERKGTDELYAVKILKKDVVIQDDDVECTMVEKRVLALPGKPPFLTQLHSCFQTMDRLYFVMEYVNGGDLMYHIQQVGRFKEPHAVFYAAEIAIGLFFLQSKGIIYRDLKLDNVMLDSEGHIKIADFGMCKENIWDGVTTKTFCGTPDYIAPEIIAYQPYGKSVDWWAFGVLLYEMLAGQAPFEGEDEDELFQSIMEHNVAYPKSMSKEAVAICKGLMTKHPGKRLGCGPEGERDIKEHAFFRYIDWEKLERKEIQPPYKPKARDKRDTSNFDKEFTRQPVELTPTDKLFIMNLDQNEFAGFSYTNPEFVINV
Serine/threonine-protein kinase Chk1 (Homo sapiens), sequence (O14757 whole entry): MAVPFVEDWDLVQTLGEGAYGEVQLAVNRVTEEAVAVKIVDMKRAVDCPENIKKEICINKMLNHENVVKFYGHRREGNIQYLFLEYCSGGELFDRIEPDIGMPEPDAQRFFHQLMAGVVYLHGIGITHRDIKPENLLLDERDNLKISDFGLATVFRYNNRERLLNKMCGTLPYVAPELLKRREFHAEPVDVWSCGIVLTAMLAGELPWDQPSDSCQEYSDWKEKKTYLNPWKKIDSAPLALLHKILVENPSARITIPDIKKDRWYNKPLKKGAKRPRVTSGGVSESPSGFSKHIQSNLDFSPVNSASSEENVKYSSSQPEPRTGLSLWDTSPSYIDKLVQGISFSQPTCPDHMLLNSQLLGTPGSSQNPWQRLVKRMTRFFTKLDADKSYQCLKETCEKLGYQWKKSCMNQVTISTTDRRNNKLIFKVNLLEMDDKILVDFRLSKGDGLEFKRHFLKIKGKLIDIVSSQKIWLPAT
Tyrosine-protein kinase Fgr (Homo sapiens), sequence (P09769 2-529 limits assumed): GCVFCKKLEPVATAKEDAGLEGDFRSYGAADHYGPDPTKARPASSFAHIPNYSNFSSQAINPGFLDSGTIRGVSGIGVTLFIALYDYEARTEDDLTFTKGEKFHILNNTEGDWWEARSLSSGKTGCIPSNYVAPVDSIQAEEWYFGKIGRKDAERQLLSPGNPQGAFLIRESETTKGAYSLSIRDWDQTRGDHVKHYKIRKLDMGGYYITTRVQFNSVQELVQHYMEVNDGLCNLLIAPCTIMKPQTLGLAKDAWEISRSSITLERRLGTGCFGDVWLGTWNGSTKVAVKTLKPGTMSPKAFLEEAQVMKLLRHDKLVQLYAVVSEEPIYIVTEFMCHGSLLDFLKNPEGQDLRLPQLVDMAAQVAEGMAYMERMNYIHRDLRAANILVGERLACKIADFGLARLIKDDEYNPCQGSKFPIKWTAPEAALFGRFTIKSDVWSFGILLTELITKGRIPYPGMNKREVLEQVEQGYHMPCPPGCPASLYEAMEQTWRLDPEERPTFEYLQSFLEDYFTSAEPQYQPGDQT
MAP kinase-activated protein kinase 2 (Homo sapiens), sequence (P49137 whole entry, looked up): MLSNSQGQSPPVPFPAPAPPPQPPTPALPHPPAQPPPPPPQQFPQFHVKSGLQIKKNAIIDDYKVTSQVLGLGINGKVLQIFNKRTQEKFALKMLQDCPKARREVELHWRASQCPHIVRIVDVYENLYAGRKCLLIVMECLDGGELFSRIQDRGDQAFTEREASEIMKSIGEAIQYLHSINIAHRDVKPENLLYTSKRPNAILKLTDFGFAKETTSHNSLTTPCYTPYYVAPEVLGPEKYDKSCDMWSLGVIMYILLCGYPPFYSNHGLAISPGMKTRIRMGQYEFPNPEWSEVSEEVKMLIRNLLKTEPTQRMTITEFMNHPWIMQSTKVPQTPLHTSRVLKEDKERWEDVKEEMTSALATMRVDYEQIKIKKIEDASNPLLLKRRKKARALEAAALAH
Tyrosine-protein kinase ABL1 (Homo sapiens), sequence (P00519 whole entry): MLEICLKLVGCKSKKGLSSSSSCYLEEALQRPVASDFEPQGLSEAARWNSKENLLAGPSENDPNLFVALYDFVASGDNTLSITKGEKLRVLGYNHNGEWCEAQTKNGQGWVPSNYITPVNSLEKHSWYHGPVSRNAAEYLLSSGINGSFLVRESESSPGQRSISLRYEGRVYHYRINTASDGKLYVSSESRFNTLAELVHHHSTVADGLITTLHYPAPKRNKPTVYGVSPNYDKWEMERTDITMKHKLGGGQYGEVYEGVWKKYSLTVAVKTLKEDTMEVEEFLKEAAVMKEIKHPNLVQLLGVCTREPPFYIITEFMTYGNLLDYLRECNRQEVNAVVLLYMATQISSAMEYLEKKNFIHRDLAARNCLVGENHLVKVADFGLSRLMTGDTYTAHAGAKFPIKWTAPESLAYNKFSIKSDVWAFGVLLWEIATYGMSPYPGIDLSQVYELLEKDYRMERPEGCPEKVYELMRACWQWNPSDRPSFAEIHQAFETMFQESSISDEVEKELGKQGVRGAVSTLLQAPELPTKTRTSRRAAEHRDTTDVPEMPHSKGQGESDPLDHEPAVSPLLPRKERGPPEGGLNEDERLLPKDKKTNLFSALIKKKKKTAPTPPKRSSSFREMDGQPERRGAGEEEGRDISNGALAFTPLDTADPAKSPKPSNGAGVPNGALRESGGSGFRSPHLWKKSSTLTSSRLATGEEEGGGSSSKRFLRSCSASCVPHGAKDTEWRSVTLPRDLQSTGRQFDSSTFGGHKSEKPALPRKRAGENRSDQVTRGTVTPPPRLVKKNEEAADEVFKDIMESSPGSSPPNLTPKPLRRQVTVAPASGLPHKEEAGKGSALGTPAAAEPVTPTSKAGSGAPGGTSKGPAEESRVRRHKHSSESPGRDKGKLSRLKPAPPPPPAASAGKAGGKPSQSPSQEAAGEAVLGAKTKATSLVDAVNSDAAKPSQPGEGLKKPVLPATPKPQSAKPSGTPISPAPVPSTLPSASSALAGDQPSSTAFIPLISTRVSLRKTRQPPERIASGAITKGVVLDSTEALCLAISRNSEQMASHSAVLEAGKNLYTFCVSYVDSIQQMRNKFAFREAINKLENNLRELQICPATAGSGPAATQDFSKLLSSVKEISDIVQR
Tyrosine-protein kinase Fes/Fps (Homo sapiens), sequence (P07332 whole entry): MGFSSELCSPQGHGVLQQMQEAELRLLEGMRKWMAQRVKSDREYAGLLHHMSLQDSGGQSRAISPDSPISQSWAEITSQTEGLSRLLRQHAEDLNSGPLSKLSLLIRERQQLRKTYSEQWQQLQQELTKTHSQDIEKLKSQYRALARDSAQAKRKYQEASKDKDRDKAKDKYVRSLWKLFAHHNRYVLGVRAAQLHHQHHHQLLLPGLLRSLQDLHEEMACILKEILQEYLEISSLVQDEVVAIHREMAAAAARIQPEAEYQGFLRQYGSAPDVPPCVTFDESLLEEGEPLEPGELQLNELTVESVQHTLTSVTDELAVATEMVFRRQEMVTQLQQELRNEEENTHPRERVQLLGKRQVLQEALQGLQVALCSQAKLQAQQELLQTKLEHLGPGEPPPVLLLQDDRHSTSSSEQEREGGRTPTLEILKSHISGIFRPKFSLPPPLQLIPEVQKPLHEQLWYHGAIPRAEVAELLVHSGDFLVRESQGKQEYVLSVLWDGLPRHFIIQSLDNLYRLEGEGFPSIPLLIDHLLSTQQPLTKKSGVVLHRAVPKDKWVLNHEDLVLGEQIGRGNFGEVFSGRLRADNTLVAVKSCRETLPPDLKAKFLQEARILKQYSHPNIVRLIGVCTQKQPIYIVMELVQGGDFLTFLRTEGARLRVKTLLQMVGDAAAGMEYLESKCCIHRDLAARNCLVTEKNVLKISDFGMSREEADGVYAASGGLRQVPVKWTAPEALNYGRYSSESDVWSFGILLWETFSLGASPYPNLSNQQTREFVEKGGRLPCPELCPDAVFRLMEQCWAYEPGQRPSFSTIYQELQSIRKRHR

SMILES: CC[C@H](C)Nc1nc2ccc(-c3[nH]cnc3-c3ccccc3F)cc2s1
- IC50 [1]: 20 nM
- IC50 [2]: 2.7 nM

SMILES: CC(C)Nc1nc2ccc(-c3ccnn3-c3cccc(Cl)c3)cc2s1
- IC50 [1]: 232 nM
- IC50 [2]: 72 nM

SMILES: Nc1nc2ccc(-c3ocnc3-c3ccccc3F)cc2s1
- IC50 [1]: 247 nM
- IC50 [2]: 16 nM

SMILES: CC(C)Nc1nc2ccc(-c3[nH]cnc3-c3ccccc3F)cc2s1
- IC50 [1]: 35 nM
- IC50 [2]: 3.3 nM

SMILES: CC[C@@H](C)Nc1nc2ccc(-c3c(-c4ccccc4F)nn(CC)c3N)cc2s1
- IC50 [1]: > 250 nM
- IC50 [2]: 17 nM

SMILES: CC[C@H](C)Nc1nc2ccc(-c3ocnc3-c3ccccc3F)cc2s1
- IC50 [1]: 30 nM
- IC50 [2]: 10 nM

SMILES: Cc1ccccc1-n1nccc1-c1ccc2nc(NC(C)C)sc2c1
- IC50 [2]: 146 nM

SMILES: CC[C@@H](C)Nc1nc2ccc(-c3[nH]cnc3-c3ccccc3F)cc2s1
- IC50 [1]: 13 nM
- IC50 [2]: 1.6 nM

SMILES: CC[C@H](C)Nc1nc2ccc(-c3c(-c4ccccc4F)n[nH]c3N)cc2s1
- IC50 [1]: 77 nM
- IC50 [2]: 5.5 nM

SMILES: CC(C)Nc1nc2ccc(-c3ocnc3-c3ccccc3F)cc2s1
- IC50 [1]: 40 nM

SMILES: CC(C)Nc1nc2ccc(-c3c(-c4ccccc4F)n[nH]c3N)cc2s1
- IC50 [1]: 51 nM
- IC50 [2]: 3.7 nM

SMILES: CC(C)Nc1nc2ccc(-c3ccnn3-c3ccc(F)cc3)cc2s1
- IC50 [1]: > 250 nM
- IC50 [2]: 48 nM

SMILES: CCNc1nc2ccc(-c3ocnc3-c3ccccc3F)cc2s1
- IC50 [1]: 167 nM
- IC50 [2]: 12 nM

SMILES: Cc1ccc(-n2nccc2-c2ccc3nc(NC(C)C)sc3c2)cc1
- IC50 [2]: > 1000 nM

SMILES: CC(C)Nc1nc2ccc(-c3ccnn3-c3cccc(F)c3)cc2s1
- IC50 [1]: 171 nM
- IC50 [2]: 33 nM

SMILES: CC(C)Nc1nc2ccc(-c3ccnn3-c3ccccc3)cc2s1
- IC50 [1]: 213 nM
- IC50 [2]: 21 nM

SMILES: CC[C@@H](C)Nc1nc2ccc(-c3c(-c4ccccc4F)nn(C)c3N)cc2s1
- IC50 [1]: 118 nM
- IC50 [2]: 11 nM

SMILES: CC(C)Nc1nc2ccc(-c3[nH]cnc3-c3ccccc3)cc2s1
- IC50 [1]: 107 nM
- IC50 [2]: 7.1 nM

SMILES: CC(C)Nc1nc2ccc(-c3ccnn3-c3ccccc3F)cc2s1
- IC50 [1]: 249 nM
- IC50 [2]: 20 nM

SMILES: Fc1ccccc1-c1ncoc1-c1ccc2ncsc2c1
- IC50 [1]: > 250 nM
- IC50 [2]: 47 nM

SMILES: Cc1cccc(-n2nccc2-c2ccc3nc(NC(C)C)sc3c2)c1
- IC50 [1]: 171 nM
- IC50 [2]: 33 nM

SMILES: CC[C@@H](C)Nc1nc2ccc(-c3c(-c4ccccc4F)n[nH]c3N)cc2s1
- inhibition [3]: < 20%
- inhibition [4]: < 20%
- inhibition [5]: < 20%
- inhibition [6]: < 20%
- inhibition [7]: 65%
- inhibition [8]: < 20%
- inhibition [9]: < 20%
- inhibition [10]: < 20%
- inhibition [11]: < 20%
- inhibition [12]: < 20%
- inhibition [13]: < 20%
- inhibition [14]: < 20%
- inhibition [15]: < 20%
- inhibition [16]: 68%
- inhibition [17]: < 20%
- inhibition [18]: < 20%
- inhibition [19]: < 20%
- half-life [20]: 1.7 h
- inhibition [21]: < 20%
- inhibition [22]: < 20%
- inhibition [23]: < 20%
- inhibition [24]: < 20%
- inhibition [25]: < 20%
- inhibition [26]: < 20%
- inhibition [27]: < 20%
- inhibition [28]: < 20%
- inhibition [29]: < 20%
- inhibition [30]: < 20%
- inhibition [31]: < 20%
- inhibition [32]: < 20%
- inhibition [33]: < 20%
- IC50 [1]: 39 nM
- inhibition [34]: < 20%
- IC50 [2]: 3.2 nM
- inhibition [35]: < 20%
- inhibition [36]: < 20%
- inhibition [37]: < 20%
- AUC [38]: 2.27 µM·h
- bioavailability [39]: 24%
- clearance [40]: 23.3 mL/min/kg
- inhibition [41]: < 20%
- inhibition [42]: < 20%
- inhibition [43]: < 20%
- inhibition [44]: < 20%
- inhibition [45]: < 20%
- inhibition [46]: < 20%
- inhibition [47]: 54%
- inhibition [48]: < 20%
- inhibition [49]: < 20%
- inhibition [50]: < 20%
- inhibition [51]: < 20%
- inhibition [52]: < 20%
- inhibition [53]: < 20%
- inhibition [54]: < 20%
- inhibition [55]: < 20%
- inhibition [56]: < 20%
- inhibition [57]: < 20%

SMILES: CC(C)Nc1nc2ccc(-c3ocnc3-c3ccccc3)cc2s1
- IC50 [1]: 96 nM
- IC50 [2]: 21 nM

SMILES: CC(C)Nc1nc2ccc(-c3ccnn3-c3ccccc3Cl)cc2s1
- IC50 [2]: 175 nM

SMILES: CC[C@@H](C)Nc1nc2ccc(-c3ocnc3-c3ccccc3F)cc2s1
- IC50 [1]: 27 nM
- IC50 [2]: 6.5 nM

SMILES: CC(C)Nc1nc2ccc(-c3ccnn3-c3ccc(Cl)cc3)cc2s1
- IC50 [2]: > 1000 nM
